Results as given in US8673850B2, “PCSK9 inhibitors and methods of use thereof” (Institut de Recherches Cliniques de Montreal, priority 2008, dated 2014).

Assays:
[1] = target: T1, PCSK9-V5 (Homo sapiens, UniProt Q8NBP7); assay: Hexa-His pull-down assay; format: binding; design: made in house; host or cells: CHO-K1 cells (conditioned medium, not purified); details: 20 μg protein immobilized on cobalt chelate resin
Description: 20 μg of purified AnxA2-(His)6 or AnxA1-(His)6 or no proteins (for negative control) were immobilized onto a cobalt chelate resin (Thermo Scientific). The resin was then washed several times with 40 mM immidazole and incubated overnight at 4° C. with 800 μl of conditioned media from PCSK9-V5-transfected CHO-K1 cells containing 40 mM immidazole. The resin was then washed several times with immidazole (40 mM), heated in reducing Laemmli sample buffer and centrifuged. Supernatants were analyzed by Western blot as described above using the anti-V5-HRP or anti-His-HRP antibodies.

[2] = target: T2, PCSK9 (Homo sapiens, UniProt Q8NBP7); assay: Cell surface PCSK9 immunofluorescence on CHO-K1 cells overexpressing the LDLR; format: cell-based; details: 1 μg purified PCSK9, 4° C., 5 or 20 μg purified AnxA2
T2 construct: purchased Bristol-Myers Squibb (gift, not bought); host or cells: added to CHO-K1 cells overexpressing the LDLR
Description: (§1) For immuno-cytochemistry, cells were plated on glass bottom culture dishes (MatTek) and then transfected the following day. Twenty-four hours post-transfection, the cells were washed with DMEM, incubated for an additional 20 h without serum and then washed 3 times with PBS. Cell surface labelings were made under non-permeabilizing conditions by fixation with 3.7% formaldehyde for 10 min at room temperature. Cells were then washed in PBS, incubated for 5 min in 150 mM glycine, washed once in PBS and incubated for 30 min in 1% bovine serum albumin in PBS. Cells were incubated overnight at 4° C. with primary antibodies and then washed 4× with PBS. […] After several washes in PBS, cells were covered with 5% 1,4-diazabicyclo[2.2.2]octane (Sigma) in PBS/glycerol 90% and immunofluorescence analyses were performed with a Zeiss LSM-510 confocal microscope.
Finally, addition of 1 μg of purified PCSK9 to CHO-K1 cells overexpressing the LDLR at 4° C. […] Therefore, it was deduced that because of its interaction with the CHRD AnxA2 reduces the level of cell surface PCSK9 likely bound to the LDLR. Without being bound by this hypothesis, PCSK9's reduced binding to LDLR induces a more rapid internalization of PCSK9 into the cell.

[3] = target: T1, PCSK9-V5; assay: Far Western blot with PCSK9-V5 conditioned media; format: binding; design: made in house; host or cells: CHO-K1 cells (conditioned medium, not purified)
[4] = tested on: PCSK9-induced LDLR degradation; assay: LDLR Western blot of HepG2 cells incubated with PCSK9 conditioned media with or without purified AnxA2; format: cell-based, human
Description: (§2) HepG2, HuH7, COS-1, BSC40 and HEK293 cell were grown in Dulbecco's modified Eagle's medium (DMEM) with 10% fetal bovine serum (FBS; Gibco), whereas CHO-K1 and CHO-K1 mutant Pgsd-677 cells that lack heparan sulfate proteoglycans^26 were grown in Ham's F12:DMEM (50:50) media with 10% FBS. Y1 mouse adrenal cells were grown in F12K medium with 15% horse serum and 2.5% FBS. All cells were maintained at 37° C. under 5% CO2. At 80-90% confluence, HuH7 and CHO-K1 cells were transiently transfected with Lipofectamine™ 2000 (Invitrogen), HEK293 cells were transfected with Effectene™ (Qiagen) and HepG2 cells were transfected with Fugene™ HD (Roche). […] For analysis of the various AnxA2 mutants in HEK293 cells, 24 h post-transfection, the cells were washed and then incubated for another 24 h in complete medium containing 50 μM of the proteasome inhibitor ALLN (Calbiochem). Stable transfectants of shRNA-AnxA2 were obtained in HuH7 cells following puromycin selection.
Western blotting experiments were made on samples that were reduced in Laemmli buffer, heated and resolved on 8% glycine SDS-PAGE gels. Separated proteins were then electro-transferred onto nitrocellulose, and probed with HRP-conjugated anti-V5 or anti-HA tags or with primary antibodies. […] Quantitation of band intensity was done with the ImageJ™ software version 1.37 (Wayne Rasband, National Institutes of Health, Bethesda, Md.). […]

[5] = tested on: AnxA2; assay: shRNA knockdown in HuH7 cells, AnxA2 Western blot; format: cell-based, human; details: HuH7, stable or transient transfection, vs control shRNA
Description: (§3) To silence human AnxA2, a 29mer pRS-shRNA was used: (sh3, […] (SEQ ID NO: 105)) (Origene). The control pRS-shGFP vector [shCtl] contained a non-effective 29mer shGFP cassette.
as §2, with “Stable transfectants of shRNA-AnxA2 were obtained in HuH7 cells following puromycin selection.” left out
(§4) Western blotting experiments were made on samples that were reduced in Laemmli buffer, heated and resolved on 8% glycine SDS-PAGE gels. […] Quantitation of band intensity was done with the ImageJ™ software version 1.37 (Wayne Rasband, National Institutes of Health, Bethesda, Md.).

[6] = tested on: LDLR; assay: LDLR Western blot of transfected HEK293 cells; format: cell-based, human; details: HEK293 cells (negligible PCSK9), with or without p11
Description: as §2
(§5) Western blotting experiments were made on samples that were reduced in Laemmli buffer, heated and resolved on 8% glycine SDS-PAGE gels. Separated proteins were then electro-transferred onto nitrocellulose, and probed with HRP-conjugated anti-V5 or anti-HA tags or with primary antibodies. […] Quantitation of band intensity was done with the ImageJ™ software version 1.37 (Wayne Rasband, National Institutes of Health, Bethesda, Md.).

[7] = tested on: LDLR; assay: shRNA knockdown in HuH7 cells, LDLR Western blot; format: cell-based, human; details: HuH7, stable or transient transfection, vs control shRNA
Description: as §3
as §2, with “Stable transfectants of shRNA-AnxA2 were obtained in HuH7 cells following puromycin selection.” left out
as §4

[8] = tested on: LDLR; assay: LDLR Western blot of HepG2 cells transfected with AnxA2; format: cell-based, human
Description: as §2, §5

[9] = tested on: LDLR; assay: Cell surface LDLR immunofluorescence of transfected HepG2 cells; format: cell-based, human
Description: as §1

[10] = tested on: PCSK9-enhanced LDLR degradation; assay: LDLR Western blot of CHO-K1 cells co-transfected with PCSK9 and AnxA2; format: cell-based; details: PCSK9 alone reduced LDLR by ~30%
Description: as §2, §5

[11] = tested on: PCSK9; assay: 5-Azacytidine treatment of HepG2 cells, PCSK9 expression; format: cell-based, human
Description: as §5
(§6) For RNA preparation and cDNA synthesis cells were washed with PBS and incubated with Trizol reagent (Life Technologies). Total RNA was extracted and resuspended in ˜30 μL of water. Isolated RNA integrity was electrophoretically verified by ethidium bromide staining and optical density. Typically, 250 ng of total RNA were used for cDNA synthesis in a total volume of 20 μL using SuperScript™ II reverse transcriptase, 25 μg/mL oligo(dT)12-18, 0.5 mmol/L 2′-deoxynucleoside 5′-triphosphates, and 40 U of RNaseOUT™, all products from Life Technologies, and used according to the recommendations of the manufacturer. All primers were designed using Primer3™ software and optimized for each amplification. […] Each reaction was in a final volume of 25 μL using the QuantiTec SYBR Green™ PCR master mix from Qiagen, cDNA dilutions that gave threshold cycle (Ct) values for both amplifications, and primers for ribosomal-protein genes or the chosen target gene. […]

[12] = tested on: LDLR; assay: 5-Azacytidine treatment of HepG2 cells, LDLR expression; format: cell-based, human
Description: as §5, §6

[13] = tested on: AnxA2; assay: 5-Azacytidine treatment of HepG2 cells, AnxA2 expression; format: cell-based, human
Description: as §5, §6

[14] = tested on: Annexin II; details: LNCaP cells; cited from earlier work
[15] = tested on: HMG-CoA reductase; assay: 5-Azacytidine treatment of HepG2 cells, HMG-CoA reductase expression; format: cell-based, human; details: HepG2, qPCR
Description: For RNA preparation and cDNA synthesis cells were washed with PBS and incubated with Trizol reagent (Life Technologies). Total RNA was extracted and resuspended in ˜30 μL of water. Isolated RNA integrity was electrophoretically verified by ethidium bromide staining and optical density. Typically, 250 ng of total RNA were used for cDNA synthesis in a total volume of 20 μL using SuperScript™ II reverse transcriptase, 25 μg/mL oligo(dT)12-18, 0.5 mmol/L 2′-deoxynucleoside 5′-triphosphates, and 40 U of RNaseOUT™, all products from Life Technologies, and used according to the recommendations of the manufacturer. All primers were designed using Primer3™ software and optimized for each amplification. Each cDNA sample was submitted to 2 polymerase chain reaction (PCR) amplifications: one for normalizing ribosomal-protein gene (S14 for human and S16 for mouse cDNAs) and the other for the gene of interest, each in triplicate. Each reaction was in a final volume of 25 μL using the QuantiTec SYBR Green™ PCR master mix from Qiagen, cDNA dilutions that gave threshold cycle (Ct) values for both amplifications, and primers for ribosomal-protein genes or the chosen target gene. The Mx3500P™ system from Stratagene was used to perform and analyze the QPCR reactions, using S14 amplifications as normalizers and control samples as calibrators^25.35.

T1 sequence (Q8NBP7 153-692): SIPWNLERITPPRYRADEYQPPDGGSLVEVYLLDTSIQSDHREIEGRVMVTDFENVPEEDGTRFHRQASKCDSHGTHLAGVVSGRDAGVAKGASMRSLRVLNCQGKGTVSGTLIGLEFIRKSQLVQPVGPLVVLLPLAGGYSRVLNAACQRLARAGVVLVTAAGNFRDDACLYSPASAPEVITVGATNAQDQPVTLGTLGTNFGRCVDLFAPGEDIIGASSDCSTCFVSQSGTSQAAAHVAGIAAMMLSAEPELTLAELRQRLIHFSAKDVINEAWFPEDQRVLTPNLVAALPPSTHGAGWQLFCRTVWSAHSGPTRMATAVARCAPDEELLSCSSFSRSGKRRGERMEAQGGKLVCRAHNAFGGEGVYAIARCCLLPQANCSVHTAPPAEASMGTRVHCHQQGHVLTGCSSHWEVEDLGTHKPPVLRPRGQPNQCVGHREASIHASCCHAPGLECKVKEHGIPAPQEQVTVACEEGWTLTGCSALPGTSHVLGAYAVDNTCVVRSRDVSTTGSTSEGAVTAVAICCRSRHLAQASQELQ
T1 sequence (Q8NBP7 31-152 partner limits assumed): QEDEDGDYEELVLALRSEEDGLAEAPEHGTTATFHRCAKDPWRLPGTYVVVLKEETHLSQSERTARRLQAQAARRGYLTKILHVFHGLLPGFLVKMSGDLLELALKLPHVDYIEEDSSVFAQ
T2 sequence (Q8NBP7 153-692): as the sequence (Q8NBP7 153-692) above
T2 sequence (Q8NBP7 31-152 partner limits assumed): as the sequence (Q8NBP7 31-152 partner limits assumed) above

AnxA2-(His)6: purified His-tagged Annexin A2 purchased from EMD biosciences
PCSK9-V5 bound in pull-down [1]: bound PCSK9 and its furin cleaved form (PCSK9-Δ218)
cell surface localization of PCSK9 [2]: reduced
PCSK9 binding to purified protein by Far Western blot ([3]; reducing and non-reducing conditions): binds in a dose-dependant manner
level of LDLR ([4]; HepG2, media of non-transfected cells, endogenous PCSK9): increased the level of LDLR
PCSK9-enhanced LDLR degradation ([4]; HepG2, ~20 h, PCSK9 conditioned media plus 5 ug/ml purified AnxA2-(His)6, ~30% without AnxA2): ~10%

AnxA2-shRNA: 29mer pRS-shRNA silencing human AnxA2, GCATCAGCACTGAAGTCAGCCTTATCTGG (SEQ ID NO: 105)
knockdown of AnxA2 [5]: 60-70%
levels of endogenous LDLR [6]: None of these treatments affected the levels of endogenous LDLR
reduction of the LDLR levels [7]: 40-70%

AnxA2: wild type human Annexin A2 isoform 2, expressed in cells by transfection
increase of LDLR level ([8]; HepG2, AnxA2 co-transfected with p11): ~90%
increase of LDLR level ([8]; HepG2 transfected with AnxA2 alone): ~40%
labelling intensity of cell surface LDLR ([9]; HepG2, AnxA2 alone or together with p11, vs pIRES control): strong increase
LDLR-lowering effect of WT-PCSK9 or PCSK9-D374Y ([9]; HepG2, co-expression with AnxA2): prevented their LDLR-lowering effect
PCSK9-V5 binding by Far Western blot ([3]; lysates of cells overexpressing the construct): specifically binds
levels of endogenous LDLR [6]: None of these treatments affected the levels of endogenous LDLR
LDLR level [10]: returned to that of the control

Nc1ncn([C@@H]2O[C@H](CO)[C@@H](O)[C@H]2O)c(=O)n1 [5-Azacytidine]
secreted form of PCSK9 by western blot ([11]; HepG2, 24 or 48 hours of treatment): barely detectable
mRNA level of PCSK9 ([11]; HepG2, qPCR): drastically decreased
LDLR expression at the protein level ([12]; HepG2, Western blot): increased expression
LDLR mRNA level ([12]; HepG2, qPCR): increased
AnxA2 mRNA expression ([13]; HepG2, 10 μM, qPCR): 3 fold
AnxA2 protein level ([13]; HepG2, Western blot): highly increased
expression of Annexin II [14]: induced an increase of expression
HMG-CoA reductase mRNA level [15]: decreased
